What is called IC50 is the point on the concentration scale where inhibition reaches its midpoint.

In one assay the target is human P2X3 receptor (Homo sapiens (Human), UniProt P56373). As to the kind of experiment: Evaluation of human P2X3 receptor inhibitory activity (Fluo-3 calcium fluorescence, FDSS 3000, ATP stimulation).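 Further: stimulus was 50 nM ATP with fluorescence followed for 3 min, and the response per well was peak post-ATP fluorescence divided by the reading at measurement start.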 Conditions: C6BU-1 cells stably expressing human P2X3 receptor. The class given is cell-based.
Chain of human P2X3 receptor (P56373 whole entry): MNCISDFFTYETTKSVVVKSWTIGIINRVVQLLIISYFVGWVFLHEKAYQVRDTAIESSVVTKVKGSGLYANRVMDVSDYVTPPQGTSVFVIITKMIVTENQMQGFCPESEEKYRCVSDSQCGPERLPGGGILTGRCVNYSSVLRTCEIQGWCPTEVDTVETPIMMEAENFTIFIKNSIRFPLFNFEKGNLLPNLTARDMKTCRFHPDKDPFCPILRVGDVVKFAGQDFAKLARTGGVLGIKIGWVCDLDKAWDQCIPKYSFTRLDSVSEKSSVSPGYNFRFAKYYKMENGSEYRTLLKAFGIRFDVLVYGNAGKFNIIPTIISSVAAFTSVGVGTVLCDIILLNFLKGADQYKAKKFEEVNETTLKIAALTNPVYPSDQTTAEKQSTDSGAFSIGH
On to `CC(C)Oc1ccc(/N=c2\[nH]c(=O)n(CC(=O)N3CCOCC3)c(=O)n2Cc2ccc(Cl)cc2)cc1Cl` [Compound I-0739], for which the IC50 worked out at 29 nM.

`CCCc1ccc(/N=c2\[nH]c(=O)n(C[C@H](C)C(=O)O)c(=O)n2Cc2ccc(Cl)cc2)cc1OC` [Compound I-1354]: the IC50 was found to be 139 nM. `CC(C)Oc1ccc(/N=c2\[nH]c(=O)n(CCCCC(=O)O)c(=O)n2Cc2ccc(Cl)cc2)cc1Cl` [Compound I-2184]: the IC50 came to 10 nM.

As for `COC(=O)[C@H](C)[C@H](C)n1c(=O)[nH]/c(=N\c2cccc(C(F)(F)F)c2)n(Cc2ccc(C)cc2)c1=O` [Compound I-1309], the half-inhibitory concentration (IC50) was 21 nM. On to `COC(=O)[C@@H](C)Cn1c(=O)[nH]/c(=N\c2cnc(OC3CCC3)c(C)c2)n(Cc2ccc(C)cc2)c1=O` [Compound I-1478], for which the 50% inhibitory concentration (IC50) came to 19 nM.

Consider `NC(=O)Cn1c(=O)[nH]/c(=N\c2ccc(OC3CCC3)cc2)n(Cc2ccc(Cl)cc2)c1=O` [Compound I-1946], for which the concentration for half-maximal inhibition (IC50) is 25 nM. With `O=c1[nH]/c(=N\c2ccc(Oc3ccnc(CO)c3)cc2)n(Cc2ccc(Cl)cc2)c(=O)n1CCCO` [Compound I-1995], the IC50 is 5 nM. On the same count and under the same terms, for `CCn1c(=O)[nH]/c(=N\c2ccc(OCc3nnc(C)o3)cc2)n(Cc2ccc(Cl)cc2)c1=O` [Compound I-2199] the value was 515 nM; for `O=C(O)CCn1c(=O)[nH]/c(=N\c2ccc(Oc3cccc(F)c3)cc2)n(Cc2ccc(Cl)cc2)c1=O` [Compound I-1951], 25 nM. As for `Cc1cc(/N=c2\[nH]c(=O)n(CC3(C(=O)NCCO)CC3)c(=O)n2Cc2ccc(Cl)cc2)ccc1OC(C)C` [Compound I-0704], the IC50 worked out at 23 nM. As to `CCn1c(=O)[nH]/c(=N\c2ccc(Oc3cncc(C(=O)OC)c3)cc2)n(CC2CCC3(CC2)CC3)c1=O` [Compound I-2173], the half-inhibitory concentration (IC50) was determined as 12 nM. As for `CNC(=O)CCn1c(=O)[nH]/c(=N\c2ccc(OCC3CC3)cc2)n(Cc2ccc(Cl)cc2)c1=O` [Compound I-1912], the IC50 stood at 29 nM. Same read-out and setting: for `C[C@H](C(=O)O)[C@@H](C)n1c(=O)[nH]/c(=N\c2cccc(C(F)(F)F)c2)n(Cc2ccc(Cl)cc2)c1=O` [Compound I-1345] the value was 69 nM; for `Cc1oc2ccc(/N=c3\[nH]c(=O)n(CCCOC4CCCCO4)c(=O)n3Cc3ccc(Cl)cc3)cc2c1C` (stereo not shown) [Compound I-2073], 10 nM. For the compound `COC(=O)[C@@H](C)Cn1c(=O)[nH]/c(=N\c2cnc(OC3CCCC3)c(Cl)c2)n(Cc2ccc(C)cc2)c1=O` [Compound I-1475], the IC50 came out at 39 nM. On the same count and under the same terms, with `CC(C)Oc1ccc(/N=c2\[nH]c(=O)n(CCc3n[nH]c(=O)o3)c(=O)n2Cc2ccc(Cl)cc2)cc1F` [Compound I-0646] the figure was 28 nM; with `O=C(O)CCCn1c(=O)[nH]/c(=N\c2ccc(Oc3ccncc3)cc2)n(Cc2ccc(Cl)cc2)c1=O` [Compound I-1259], 11 nM. For the compound `CNC(=NC#N)NCCCn1c(=O)[nH]/c(=N\c2ccc(OC(C)C)c(F)c2)n(Cc2ccc(Cl)cc2)c1=O` [Compound I-0615], the 50% inhibitory concentration (IC50) worked out at 5 nM. As for `CCOc1ccc(/N=c2\[nH]c(=O)n(C[C@H](C)C(=O)OC)c(=O)n2Cc2ccc(Cl)cc2)cc1F` [Compound I-0602], the IC50 came to 20 nM. As for `Cc1[nH]c2ccc(/N=c3\[nH]c(=O)n(C[C@H](O)CO)c(=O)n3Cc3ccc(Cl)cc3)cc2c1C` [Compound I-2043], the IC50 is 9 nM.

For the compound `CC(C)Oc1ccc(/N=c2\[nH]c(=O)n(CC(=O)N3CCN(C(=O)OC(C)(C)C)CC3)c(=O)n2Cc2ccc(Cl)cc2)cc1Cl` [Compound I-0740], the 50% inhibitory concentration (IC50) was 221 nM.

The assay is the same for the next values; noted with them: C6BU-1 cells stably expressing human P2X3 receptor, Fluo-3 fluorescence, FDSS 3000.
With `CC[C@H](C)COc1ccc(/N=c2\[nH]c(=O)n(CCC(=O)O)c(=O)n2Cc2ccc(C)cc2)cc1` [Compound I-1066], the IC50 is 425 nM. For the compound `Cc1ccc(Cn2c(=O)n(CCC(=O)O)c(=O)[nH]/c2=N\c2ccc(O[C@H](C)C(F)(F)F)cc2)cc1` [Compound I-1031], the IC50 came to 64 nM. For `O=c1[nH]/c(=N\c2ccc(Oc3ccnc(O)c3)cc2)n(Cc2ccc(Cl)cc2)c(=O)n1CCO` [Compound I-1712], the IC50 was 4 nM.

`CC[C@@H](C)Oc1ccc(/N=c2\[nH]c(=O)n(C[C@H](C)C(=O)O)c(=O)n2Cc2ccc(C)cc2)cc1Cl` [Compound I-1013]: the IC50 turned out to be 5 nM. On to `COC(=O)[C@@H](C)Cn1c(=O)[nH]/c(=N\c2ccc(C3=CCCCC3)cc2)n(Cc2ccc(C)cc2)c1=O` [Compound I-1078], for which the 50% inhibitory concentration (IC50) worked out at 218 nM.

Still in this assay, the particulars now being: human P2X3 receptor, Test Example 1.
Regarding `COC(=O)CCn1c(=O)[nH]/c(=N\c2ccc(Oc3cccc(C(N)=O)n3)cc2)n(Cc2ccc(Cl)cc2)c1=O` [Compound I-2684], the IC50 is 2 nM.

With `Cc1nnc(Oc2ccc(/N=c3\[nH]c(=O)n(CC(CO)CO)c(=O)n3Cc3ccc(Cl)cc3)cc2)s1` [Compound I-2517], the IC50 was determined as 167 nM. As to `C=COc1ccc(/N=c2\[nH]c(=O)n(C[C@H](C)C(=O)OC)c(=O)n2Cc2ccc(C)cc2)cc1Cl` [Compound I-1548], the IC50 was found to be 5 nM.

Regarding `CNC(=O)[C@H](C)n1c(=O)[nH]/c(=N\c2ccc(Oc3ccon3)cc2)n(Cc2ccc(Cl)cc2)c1=O` [Compound I-2535], the 50% inhibitory concentration (IC50) amounted to 44 nM.

On to `COC(=O)c1cccc(Oc2ccc(/N=c3\[nH]c(=O)n(C)c(=O)n3Cc3ccc(C)cc3)cc2)n1` [Compound I-2266], for which the concentration for half-maximal inhibition (IC50) is 44 nM. On the same count and under the same terms, with `CCn1c(=O)[nH]/c(=N\c2ccc(Oc3ccnc(C(=O)O)c3)c(OC)c2)n(Cc2ccc(Cl)cc2)c1=O` [Compound I-2295] the figure was < 4 nM. Same read-out and setting: with `CCn1c(=O)[nH]/c(=N\c2ccc(Oc3ccc(C#N)nc3)cc2)n(Cc2ccc(Cl)cn2)c1=O` [Compound I-2375] the figure was 22 nM.

Take `Cc1ccc(Cn2c(=O)n(CC3(C(=O)O)COC3)c(=O)[nH]/c2=N\c2ccc(OC(C)C)c(Cl)c2)cc1` [Compound I-1495]: the IC50 was 26 nM. On the same count and under the same terms, for `Cc1ccc(Cn2c(=O)n(C)c(=O)[nH]/c2=N\c2ccc(Oc3ccc(C(=O)O)nn3)cc2)cc1` [Compound I-2382] the value was 54 nM; for `Cn1c(=O)[nH]/c(=N\c2ccc(Oc3ncc(C(=O)O)s3)cc2)n(Cc2ccc(Cl)cc2)c1=O` [Compound I-2409], 14 nM. Consider `O=c1[nH]/c(=N\c2ccc(Oc3ccnc(F)c3)cc2)n(Cc2ccc(Cl)cc2)c(=O)n1CC(CO)CO` [Compound I-2705], for which the IC50 came to 3 nM. On the same count and under the same terms, with `O=c1[nH]/c(=N\c2ccc(Oc3cccc(F)n3)cc2)n(Cc2ccc(Cl)cc2)c(=O)n1C[C@H](O)CO` [Compound I-2436] the figure was 4 nM; with `Cc1ccc(Cn2c(=O)n(C[C@H](C)C(=O)O)c(=O)[nH]/c2=N\c2ccc(OCC(F)F)cc2)cc1` [Compound I-0849], 78 nM. For the compound `CCn1c(=S)[nH]/c(=N\c2ccc(Oc3ccnc(O)c3)cc2)n(Cc2ccc(Cl)cc2)c1=O` [Compound I-2258], the IC50 turned out to be 3 nM.

`Cn1c(=O)[nH]/c(=N\c2ccc(Oc3cccc(C#N)n3)cc2)n(C[C@H]2CC[C@H](C)CC2)c1=O` [Compound I-2446]: the IC50 was 1 nM.

Take `CCCOc1ccc(/N=c2\[nH]c(=O)n(C[C@H](CC)C(=O)OC)c(=O)n2Cc2ccc(Cl)cc2)cc1` [Compound I-0888]: the 50% inhibitory concentration (IC50) was 30 nM.

On to `Cc1cc(/N=c2\[nH]c(=O)n([C@H]3CC[C@H](C(=O)O)CC3)c(=O)n2Cc2ccc(Cl)cc2)ccc1OC(C)C` [Compound I-0850], for which the IC50 is 62 nM.

(Values after US9718790B2, “Triazine derivative and pharmaceutical composition having an analgesic activity comprising the same” (SHIONOGI & CO., LTD., priority 2010, dated 2017).)
